Measured values as given in the supplement of paper PMC10307832.

Tests used:
Experiment in all cases: relative viability (nuclei count vs DMSO), 5 days (fraction); higher = more cells survive
NCI-H1944 = system: NCI-H1944
Method in brief: (§1)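 Lung cancer cell lines in 1536-well plates were dosed by pin tool the day after seeding, either with one drug alone or with a fixed anchor-drug dose plus five library-drug doses (not always all listed) in √10 steps. After 5 days, cells were fixed and their nuclei stained in one step (final 0.05% Triton X-100, 1% formaldehyde, 1 ug/ml Hoechst), then counted on 4× images. Relative viability is the nuclei count in treated wells divided by that in vehicle wells. Values are medians of duplicate plates.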

ChaGo-K-1 = system: ChaGo-K-1
Method in brief: as §1

LC-2-ad = system: LC-2-ad
Method in brief: as §1

NCI-H1793 = system: NCI-H1793
Method in brief: as §1

UMC-11 = system: UMC-11
Method in brief: as §1

NCI-H1734 = system: NCI-H1734
Method in brief: as §1

NCI-H838 = system: NCI-H838
Method in brief: as §1

NCI-H2405 = system: NCI-H2405
Method in brief: as §1

HCC-78 = system: HCC-78
Method in brief: as §1

ABC-1 = system: ABC-1
Method in brief: as §1

EMC-BAC-2 = system: EMC-BAC-2
Method in brief: as §1

HCC-15 = system: HCC-15
Method in brief: as §1

COR-L23 = system: COR-L23
Method in brief: as §1

HCC-366 = system: HCC-366
Method in brief: as §1

HARA = system: HARA
Method in brief: as §1

NCI-H2228 = system: NCI-H2228
Method in brief: as §1

NCI-H2009 = system: NCI-H2009
Method in brief: as §1

NCI-H2023 = system: NCI-H2023
Method in brief: as §1

NCI-H23 = system: NCI-H23
Method in brief: as §1

SK-LU-1 = system: SK-LU-1
Method in brief: as §1

NCI-H2126 = system: NCI-H2126
Method in brief: as §1

A-427 = system: A-427
Method in brief: as §1

NCI-H1993 = system: NCI-H1993
Method in brief: as §1

C=C1C(=O)O[C@@H](CCCCCCCC)[C@@H]1C(=O)O [C-75] + COc1cc2c(Oc3ccc(NC(=O)C4(C(=O)Nc5ccc(F)cc5)CC4)cc3F)ccnc2cc1OCCCN1CCOCC1 [Foretinib] (partner 0.25 µM)
relative viability (NCI-H1944; first compound 0.08 µM): 0.899
relative viability (NCI-H1944; first compound 0.253 µM): 0.756
relative viability (NCI-H1944; first compound 0.8 µM): 0.829
relative viability (NCI-H1944; first compound 8 µM): 0.834
relative viability (ChaGo-K-1; first compound 0.08 µM): 0.915
relative viability (ChaGo-K-1; first compound 0.253 µM): 0.887
relative viability (ChaGo-K-1; first compound 0.8 µM): 0.894
relative viability (ChaGo-K-1; first compound 2.53 µM): 0.925
relative viability (ChaGo-K-1; first compound 8 µM): 0.874
relative viability (LC-2-ad; first compound 0.08 µM): 0.937
relative viability (LC-2-ad; first compound 0.253 µM): 0.8
relative viability (LC-2-ad; first compound 0.8 µM): 0.859
relative viability (LC-2-ad; first compound 2.53 µM): 0.724
relative viability (LC-2-ad; first compound 8 µM): 0.889
relative viability (NCI-H1793; first compound 0.08 µM): 0.572
relative viability (NCI-H1793; first compound 0.253 µM): 0.721
relative viability (NCI-H1793; first compound 0.8 µM): 0.569
relative viability (NCI-H1793; first compound 2.53 µM): 0.46
relative viability (NCI-H1793; first compound 8 µM): 0.658
relative viability (UMC-11; first compound 0.08 µM): 0.99
relative viability (UMC-11; first compound 0.253 µM): 1.04
relative viability (UMC-11; first compound 0.8 µM): 0.978
relative viability (UMC-11; first compound 2.53 µM): 0.681
relative viability (UMC-11; first compound 8 µM): 0.69
relative viability (NCI-H1734; first compound 0.08 µM): 0.942
relative viability (NCI-H1734; first compound 0.253 µM): 0.819
relative viability (NCI-H1734; first compound 0.8 µM): 0.78
relative viability (NCI-H1734; first compound 2.53 µM): 0.476
relative viability (NCI-H1734; first compound 8 µM): 0.748
relative viability (NCI-H838; first compound 0.08 µM): 1.06
relative viability (NCI-H838; first compound 0.8 µM): 0.948
relative viability (NCI-H838; first compound 2.53 µM): 0.861
relative viability (NCI-H838; first compound 8 µM): 0.964
relative viability (NCI-H2405; first compound 0.08 µM): 1.05
relative viability (NCI-H2405; first compound 0.253 µM): 1
relative viability (NCI-H2405; first compound 0.8 µM): 1.05
relative viability (NCI-H2405; first compound 2.53 µM): 0.882
relative viability (NCI-H2405; first compound 8 µM): 1.05
relative viability (HCC-78; first compound 0.08 µM): 0.553
relative viability (HCC-78; first compound 0.253 µM): 0.554
relative viability (HCC-78; first compound 0.8 µM): 0.577
relative viability (HCC-78; first compound 2.53 µM): 0.421
relative viability (HCC-78; first compound 8 µM): 0.687
relative viability (ABC-1; first compound 0.08 µM): 1.16
relative viability (ABC-1; first compound 0.253 µM): 1.24
relative viability (ABC-1; first compound 0.8 µM): 0.913
relative viability (ABC-1; first compound 2.53 µM): 1.18
relative viability (ABC-1; first compound 8 µM): 0.81
relative viability (EMC-BAC-2; first compound 0.08 µM): 1.02
relative viability (EMC-BAC-2; first compound 0.253 µM): 1.1
relative viability (EMC-BAC-2; first compound 0.8 µM): 0.99
relative viability (EMC-BAC-2; first compound 2.53 µM): 0.904
relative viability (EMC-BAC-2; first compound 8 µM): 1.05
relative viability (HCC-15; first compound 0.08 µM): 0.949
relative viability (HCC-15; first compound 0.253 µM): 1.01
relative viability (HCC-15; first compound 0.8 µM): 0.956
relative viability (HCC-15; first compound 2.53 µM): 1
relative viability (HCC-15; first compound 8 µM): 0.931
relative viability (COR-L23; first compound 0.08 µM): 0.903
relative viability (COR-L23; first compound 0.253 µM): 1
relative viability (COR-L23; first compound 0.8 µM): 0.856
relative viability (COR-L23; first compound 2.53 µM): 0.9
relative viability (COR-L23; first compound 8 µM): 0.965
relative viability (HCC-366; first compound 0.08 µM): 0.909
relative viability (HCC-366; first compound 0.253 µM): 0.961
relative viability (HCC-366; first compound 0.8 µM): 0.877
relative viability (HCC-366; first compound 8 µM): 0.845
relative viability (HARA; first compound 0.08 µM): 0.822
relative viability (HARA; first compound 0.253 µM): 0.93
relative viability (HARA; first compound 0.8 µM): 0.819
relative viability (HARA; first compound 2.53 µM): 0.769
relative viability (HARA; first compound 8 µM): 0.979
relative viability (NCI-H2228; first compound 0.08 µM): 0.803
relative viability (NCI-H2228; first compound 0.253 µM): 0.919
relative viability (NCI-H2228; first compound 0.8 µM): 0.85
relative viability (NCI-H2228; first compound 2.53 µM): 0.839
relative viability (NCI-H2228; first compound 8 µM): 0.863
relative viability (NCI-H2009; first compound 0.08 µM): 1.21
relative viability (NCI-H2009; first compound 0.253 µM): 1.2
relative viability (NCI-H2009; first compound 0.8 µM): 1.12
relative viability (NCI-H2009; first compound 2.53 µM): 1.13
relative viability (NCI-H2009; first compound 8 µM): 1.04
relative viability (NCI-H2023; first compound 0.08 µM): 0.798
relative viability (NCI-H2023; first compound 0.253 µM): 1.05
relative viability (NCI-H2023; first compound 0.8 µM): 0.714
relative viability (NCI-H2023; first compound 2.53 µM): 0.943
relative viability (NCI-H2023; first compound 8 µM): 1.07
relative viability (NCI-H23; first compound 0.08 µM): 0.795
relative viability (NCI-H23; first compound 0.253 µM): 1.08
relative viability (NCI-H23; first compound 0.8 µM): 1.02
relative viability (NCI-H23; first compound 2.53 µM): 0.808
relative viability (NCI-H23; first compound 8 µM): 0.881
relative viability (SK-LU-1; first compound 0.08 µM): 0.794
relative viability (SK-LU-1; first compound 0.253 µM): 0.721
relative viability (SK-LU-1; first compound 0.8 µM): 0.881
relative viability (SK-LU-1; first compound 2.53 µM): 0.736
relative viability (SK-LU-1; first compound 8 µM): 0.766
relative viability (NCI-H2126; first compound 0.08 µM): 1.1
relative viability (NCI-H2126; first compound 0.253 µM): 1.27
relative viability (NCI-H2126; first compound 0.8 µM): 1.2
relative viability (NCI-H2126; first compound 2.53 µM): 1.08
relative viability (NCI-H2126; first compound 8 µM): 1.07
relative viability (A-427; first compound 0.08 µM): 0.898
relative viability (A-427; first compound 0.253 µM): 1.18
relative viability (A-427; first compound 0.8 µM): 0.969
relative viability (A-427; first compound 2.53 µM): 1.03
relative viability (A-427; first compound 8 µM): 0.992
relative viability (NCI-H1993; first compound 0.08 µM): 0.898
relative viability (NCI-H1993; first compound 0.253 µM): 0.782
relative viability (NCI-H1993; first compound 0.8 µM): 0.851
relative viability (NCI-H1993; first compound 2.53 µM): 0.786
relative viability (NCI-H1993; first compound 8 µM): 0.88
